# Columns and labels:
# [1] = molecular target: Cyclin-dependent kinase 14 (Homo sapiens, UniProt O94921); test: PFTAIRE1(CD14CGS1) Takeda global kinase panel
# Rattus norvegicus [2] = species: Rattus norvegicus; test: Inhibition of Glutamate, NMDA, Phencyclidine at 10 µM in the Eurofins-Panlabs radioligand binding assay (Eurofins_assay_233000); format: protein-complex assay; details: Compound concentration 10.0 uM
# [3] = molecular target: Serine/threonine-protein kinase MARK1 (Homo sapiens, UniProt Q9P0L2); test: MARK1(MAR1PHY1) Takeda global kinase panel
# [4] = molecular target: Calcium/calmodulin-dependent protein kinase type 1G (Homo sapiens, UniProt Q96NX5); test: CaMK1gamma(CA1GLGN1) Takeda global kinase panel
# [5] = molecular target: Serine/threonine-protein kinase Nek11 (Homo sapiens, UniProt Q8NG66); test: Nek11(NE11LGRI) Takeda global kinase panel
# [6] = molecular target: Beta-adrenergic receptor kinase 1 (Homo sapiens, UniProt P25098); test: BARK1 [GRK2(ADR1LGG5)] Takeda global kinase panel
# [7] = molecular target: TRAF2 and NCK-interacting protein kinase (Homo sapiens, UniProt Q9UKE5); test: TNIK [ZC2(TNIKLGF1)] Takeda global kinase panel
# [8] = molecular target: Tyrosine-protein kinase BTK (Homo sapiens, UniProt Q06187); test: BTK(BTK1CGF1) Takeda global kinase panel
# [9] = molecular target: Rho-associated protein kinase 1 (Homo sapiens, UniProt Q13464); test: ROCK1(ROC1LGY1) Takeda global kinase panel
# [10] = molecular target: Dual specificity protein kinase CLK2 (Homo sapiens, UniProt P49760); test: CLK2(CLK2LGF1) Takeda global kinase panel
# Aurora kinase A = Aurora kinase A (Homo sapiens, UniProt O14965); test: AurA [Aur2(AURALGF1)] Takeda global kinase panel
# [11] = molecular target: Serine/threonine-protein kinase PAK 5 (Homo sapiens, UniProt Q9P286); test: PAK5(PAK7LGF1) Takeda global kinase panel
# [12] = molecular target: Eukaryotic translation initiation factor 2-alpha kinase 1 (Homo sapiens, UniProt Q9BQI3); test: HRI(EIK1CGQ1) Takeda global kinase panel
# [13] = molecular target: Mitogen-activated protein kinase kinase kinase kinase 5 (Homo sapiens, UniProt Q9Y4K4); test: KHS1(M4K5LGY1) Takeda global kinase panel
# [14] = molecular target: Vascular endothelial growth factor receptor 2 (Homo sapiens, UniProt P35968); test: KDR(KDR1CGY1) Takeda global kinase panel
# [15] = molecular target: Ribosomal protein S6 kinase beta-1 (Homo sapiens, UniProt P23443); test: p70S6K(R6B1CGF1) Takeda global kinase panel
# [16] = molecular target: Tyrosine-protein kinase TXK (Homo sapiens, UniProt P42681); test: TXK(TXK1CGD5) Takeda global kinase panel
# [17] = molecular target: Serine/threonine-protein kinase pim-1 (Homo sapiens, UniProt P11309); test: Pim1(PIM1LGP1) Takeda global kinase panel
# [18] = molecular target: Mitogen-activated protein kinase kinase kinase 20 (Homo sapiens, UniProt Q9NYL2); test: ZAK(ZAK1LGY1) Takeda global kinase panel
# [19] = molecular target: Sodium-dependent serotonin transporter (Homo sapiens) (UniProt P31645); details: Compound concentration 10.0 uM
# [20] = molecular target: Tyrosine-protein kinase ABL2 (Homo sapiens, UniProt P42684); test: Arg(ABL2LGF1) Takeda global kinase panel
# [21] = molecular target: Serine/threonine-protein kinase TNNI3K (Homo sapiens, UniProt Q59H18); test: HH498(TNNILGY1) Takeda global kinase panel
# [22] = molecular target: Serine/threonine-protein kinase tousled-like 1 (Homo sapiens, UniProt Q9UKI8); test: TLK1(TLK1LGP1) Takeda global kinase panel
# [23] = molecular target: Tyrosine-protein kinase Lck (Homo sapiens, UniProt P06239); test: Lck(LCK1LGF1) Takeda global kinase panel
# [24] = molecular target: ALK tyrosine kinase receptor (Homo sapiens, UniProt Q9UM73); test: ALK(ALK1LGY1) Takeda global kinase panel
# [25] = molecular target: NUAK family SNF1-like kinase 2 (Homo sapiens, UniProt Q9H093); test: NuaK2(NUA2LHY1) Takeda global kinase panel
# [26] = molecular target: Cyclin-dependent kinase 6 (Homo sapiens, UniProt Q00534); test: CDK6(CDK6CGS1) Takeda global kinase panel
# [27] = molecular target: NUAK family SNF1-like kinase 1 (Homo sapiens, UniProt O60285); test: NuaK1(NUA1LGF5) Takeda global kinase panel
# [28] = molecular target: Tyrosine-protein kinase SYK (Homo sapiens, UniProt P43405); test: Syk(SYK1LHY1) Takeda global kinase panel
# [29] = molecular target: Beta-2 adrenergic receptor (Homo sapiens) (UniProt P07550); details: Compound concentration 10.0 uM
# [30] = molecular target: Serine/threonine-protein kinase SIK3 (Homo sapiens, UniProt Q9Y2K2); test: QSK(SIK3LGP1) Takeda global kinase panel
# [31] = molecular target: Receptor-type tyrosine-protein kinase FLT3 (Homo sapiens, UniProt P36888); test: FLT3(FLT3MGE1) Takeda global kinase panel
# [32] = molecular target: Protein kinase C theta type (Homo sapiens, UniProt Q04759); test: PKCtheta(PRKQLGM5) Takeda global kinase panel
# [33] = molecular target: Mitogen-activated protein kinase kinase kinase 9 (Homo sapiens, UniProt P80192); test: MLK1(M3K9LGF1) Takeda global kinase panel
# [34] = molecular target: Mitogen-activated protein kinase kinase kinase 14 (Homo sapiens, UniProt Q99558); test: NIK(M314LGP1) Takeda global kinase panel
# [35] = molecular target: Mitogen-activated protein kinase 3 (Homo sapiens, UniProt P27361); test: ERK1(MAP3LGY1) Takeda global kinase panel
# Rattus norvegicus [36] = species: Rattus norvegicus; test: Inhibition of Thyroid Hormone at 10 µM in the Eurofins-Panlabs radioligand binding assay (Eurofins_assay_285900); format: protein assay; details: Compound concentration 10.0 uM
# Myotonin-protein kinase = Myotonin-protein kinase (Homo sapiens, UniProt Q09013); test: DMPK(DMPKLGF1) Takeda global kinase panel
# [37] = molecular target: Serine/threonine-protein kinase/endoribonuclease IRE1 (Homo sapiens, UniProt O75460); test: IRE1(ERN1PHY1) Takeda global kinase panel
# Rattus norvegicus [38] = species: Rattus norvegicus; test: Inhibition of Rolipram at 10 µM in the Eurofins-Panlabs radioligand binding assay (Eurofins_assay_268811); format: protein assay; parameters: ligand concentration 1.8 nM; details: Compound concentration 10.0 uM
# Ephrin type-B receptor 1 = Ephrin type-B receptor 1 (Homo sapiens, UniProt P54762); test: EphB1(EPB1LGY1) Takeda global kinase panel
# [39] = molecular target: Peripheral plasma membrane protein CASK (Homo sapiens, UniProt O14936); test: CASK(CASKLGY1) Takeda global kinase panel
# [40] = molecular target: Glutamate NMDA receptor (Rattus norvegicus) (UniProt P35439+Q00959+Q00960+Q00961+Q62645+Q8VHN2+Q9R1M7); details: Compound concentration 10.0 uM
# [41] = molecular target: Cyclin-dependent kinase 4 (Homo sapiens, UniProt P11802); test: CDK4(CDK4CGS1) Takeda global kinase panel
# [42] = molecular target: Cyclin-G-associated kinase (Homo sapiens, UniProt O14976); test: GAK(GAK1PGF1) Takeda global kinase panel
# [43] = molecular target: Protein-tyrosine kinase 6 (Homo sapiens, UniProt Q13882); test: Brk(PTK6LGY1) Takeda global kinase panel
# Chain of Protein-tyrosine kinase 6 (Q13882 whole entry): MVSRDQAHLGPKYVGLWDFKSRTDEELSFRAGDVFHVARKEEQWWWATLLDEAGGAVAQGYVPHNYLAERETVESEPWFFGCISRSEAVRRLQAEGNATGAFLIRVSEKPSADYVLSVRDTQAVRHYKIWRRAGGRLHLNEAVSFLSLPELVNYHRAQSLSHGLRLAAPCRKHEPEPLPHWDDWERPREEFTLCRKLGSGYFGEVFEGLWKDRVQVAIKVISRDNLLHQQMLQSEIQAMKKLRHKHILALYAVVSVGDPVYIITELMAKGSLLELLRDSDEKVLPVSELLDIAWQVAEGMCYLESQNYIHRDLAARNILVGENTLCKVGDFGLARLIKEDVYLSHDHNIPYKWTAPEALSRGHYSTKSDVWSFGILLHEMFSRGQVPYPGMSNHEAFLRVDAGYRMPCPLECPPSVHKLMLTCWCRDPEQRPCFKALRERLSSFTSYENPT
# Chain of TRAF2 and NCK-interacting protein kinase (Q9UKE5 whole entry): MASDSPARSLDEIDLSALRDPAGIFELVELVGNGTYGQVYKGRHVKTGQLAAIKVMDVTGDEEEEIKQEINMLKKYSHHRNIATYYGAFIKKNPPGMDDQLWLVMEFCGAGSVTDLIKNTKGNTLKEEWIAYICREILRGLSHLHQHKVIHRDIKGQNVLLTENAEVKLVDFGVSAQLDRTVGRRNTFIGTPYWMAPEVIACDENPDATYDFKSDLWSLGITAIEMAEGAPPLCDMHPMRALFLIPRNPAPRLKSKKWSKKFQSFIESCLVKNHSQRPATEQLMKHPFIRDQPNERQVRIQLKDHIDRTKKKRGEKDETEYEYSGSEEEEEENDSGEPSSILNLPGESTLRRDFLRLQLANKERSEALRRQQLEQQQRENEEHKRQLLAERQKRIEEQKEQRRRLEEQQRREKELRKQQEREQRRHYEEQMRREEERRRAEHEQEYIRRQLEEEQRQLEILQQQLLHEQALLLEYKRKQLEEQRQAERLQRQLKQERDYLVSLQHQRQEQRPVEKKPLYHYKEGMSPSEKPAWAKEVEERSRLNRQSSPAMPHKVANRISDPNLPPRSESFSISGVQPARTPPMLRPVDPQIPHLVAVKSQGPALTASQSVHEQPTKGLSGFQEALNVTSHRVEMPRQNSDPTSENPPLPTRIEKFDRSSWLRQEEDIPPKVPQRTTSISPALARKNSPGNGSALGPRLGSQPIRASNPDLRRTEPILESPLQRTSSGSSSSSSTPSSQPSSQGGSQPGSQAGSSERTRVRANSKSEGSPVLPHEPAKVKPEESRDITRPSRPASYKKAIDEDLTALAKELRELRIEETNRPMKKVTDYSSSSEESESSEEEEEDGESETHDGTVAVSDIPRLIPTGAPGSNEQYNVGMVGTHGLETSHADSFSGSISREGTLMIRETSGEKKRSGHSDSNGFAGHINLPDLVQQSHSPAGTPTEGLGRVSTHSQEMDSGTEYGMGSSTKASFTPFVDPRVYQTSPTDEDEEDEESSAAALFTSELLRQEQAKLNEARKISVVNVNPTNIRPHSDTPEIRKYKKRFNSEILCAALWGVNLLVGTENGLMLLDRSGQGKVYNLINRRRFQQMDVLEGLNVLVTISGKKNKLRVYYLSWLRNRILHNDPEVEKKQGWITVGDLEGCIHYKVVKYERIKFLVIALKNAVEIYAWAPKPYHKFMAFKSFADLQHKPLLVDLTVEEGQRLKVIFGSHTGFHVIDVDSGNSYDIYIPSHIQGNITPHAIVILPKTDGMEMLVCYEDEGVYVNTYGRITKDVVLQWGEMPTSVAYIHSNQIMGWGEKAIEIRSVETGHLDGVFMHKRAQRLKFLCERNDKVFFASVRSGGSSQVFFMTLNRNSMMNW
# Chain of Vascular endothelial growth factor receptor 2 (P35968 whole entry): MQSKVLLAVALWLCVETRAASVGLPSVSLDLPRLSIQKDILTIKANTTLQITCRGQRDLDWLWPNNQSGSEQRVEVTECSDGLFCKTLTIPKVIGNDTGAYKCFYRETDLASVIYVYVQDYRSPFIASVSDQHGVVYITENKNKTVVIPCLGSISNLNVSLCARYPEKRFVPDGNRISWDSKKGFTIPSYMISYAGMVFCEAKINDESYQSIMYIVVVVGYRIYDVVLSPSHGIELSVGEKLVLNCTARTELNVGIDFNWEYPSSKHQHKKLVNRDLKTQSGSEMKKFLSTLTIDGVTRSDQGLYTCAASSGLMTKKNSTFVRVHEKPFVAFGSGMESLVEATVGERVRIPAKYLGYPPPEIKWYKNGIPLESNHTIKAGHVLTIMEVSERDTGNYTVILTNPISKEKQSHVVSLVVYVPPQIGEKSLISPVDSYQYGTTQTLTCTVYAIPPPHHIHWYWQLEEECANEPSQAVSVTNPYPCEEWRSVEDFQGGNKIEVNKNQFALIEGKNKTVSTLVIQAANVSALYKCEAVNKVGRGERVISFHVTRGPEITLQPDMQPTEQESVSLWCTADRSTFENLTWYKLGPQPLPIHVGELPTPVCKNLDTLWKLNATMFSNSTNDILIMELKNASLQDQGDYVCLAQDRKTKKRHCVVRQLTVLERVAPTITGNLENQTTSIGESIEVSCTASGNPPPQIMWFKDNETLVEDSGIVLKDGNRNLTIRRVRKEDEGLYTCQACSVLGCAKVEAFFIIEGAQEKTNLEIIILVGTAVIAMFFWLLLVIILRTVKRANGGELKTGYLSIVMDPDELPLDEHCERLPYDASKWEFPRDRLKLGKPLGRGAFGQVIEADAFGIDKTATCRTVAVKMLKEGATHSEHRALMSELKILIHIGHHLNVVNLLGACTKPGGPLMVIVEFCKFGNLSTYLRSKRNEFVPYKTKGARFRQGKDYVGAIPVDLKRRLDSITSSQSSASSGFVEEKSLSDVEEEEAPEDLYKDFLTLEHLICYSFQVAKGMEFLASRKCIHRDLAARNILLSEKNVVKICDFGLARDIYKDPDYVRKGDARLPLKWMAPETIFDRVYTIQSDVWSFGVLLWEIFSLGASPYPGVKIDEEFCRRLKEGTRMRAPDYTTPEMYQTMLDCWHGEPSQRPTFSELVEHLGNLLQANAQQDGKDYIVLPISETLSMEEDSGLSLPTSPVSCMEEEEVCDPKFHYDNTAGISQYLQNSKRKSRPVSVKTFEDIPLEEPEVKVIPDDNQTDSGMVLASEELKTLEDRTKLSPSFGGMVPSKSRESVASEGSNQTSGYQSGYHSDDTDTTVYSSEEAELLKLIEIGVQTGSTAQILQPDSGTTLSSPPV
# Chain of Peripheral plasma membrane protein CASK (O14936 whole entry): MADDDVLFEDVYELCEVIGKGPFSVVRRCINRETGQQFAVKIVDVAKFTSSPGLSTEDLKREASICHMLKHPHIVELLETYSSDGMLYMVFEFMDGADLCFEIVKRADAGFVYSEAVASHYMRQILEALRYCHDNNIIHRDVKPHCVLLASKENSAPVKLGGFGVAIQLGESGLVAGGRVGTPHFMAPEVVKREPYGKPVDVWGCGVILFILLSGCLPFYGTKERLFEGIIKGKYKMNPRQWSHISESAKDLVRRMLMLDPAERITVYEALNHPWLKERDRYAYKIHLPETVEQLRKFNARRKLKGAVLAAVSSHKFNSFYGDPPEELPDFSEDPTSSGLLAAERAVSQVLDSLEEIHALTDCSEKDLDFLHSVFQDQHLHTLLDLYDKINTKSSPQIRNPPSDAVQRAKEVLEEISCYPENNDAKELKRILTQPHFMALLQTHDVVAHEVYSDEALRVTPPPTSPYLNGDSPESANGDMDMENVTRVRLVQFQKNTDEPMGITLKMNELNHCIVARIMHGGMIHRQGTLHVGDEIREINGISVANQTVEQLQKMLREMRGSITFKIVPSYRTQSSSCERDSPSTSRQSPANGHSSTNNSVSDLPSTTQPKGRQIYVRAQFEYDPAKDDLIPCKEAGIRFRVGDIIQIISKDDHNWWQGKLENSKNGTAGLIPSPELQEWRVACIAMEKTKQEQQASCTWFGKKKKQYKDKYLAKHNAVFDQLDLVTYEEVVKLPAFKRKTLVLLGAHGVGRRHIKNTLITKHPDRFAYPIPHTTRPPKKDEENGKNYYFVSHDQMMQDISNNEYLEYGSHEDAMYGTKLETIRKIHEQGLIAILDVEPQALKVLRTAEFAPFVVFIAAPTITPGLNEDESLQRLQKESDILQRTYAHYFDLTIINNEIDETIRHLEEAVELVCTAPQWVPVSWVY
# Chain of Serine/threonine-protein kinase PAK 5 (Q9P286 whole entry): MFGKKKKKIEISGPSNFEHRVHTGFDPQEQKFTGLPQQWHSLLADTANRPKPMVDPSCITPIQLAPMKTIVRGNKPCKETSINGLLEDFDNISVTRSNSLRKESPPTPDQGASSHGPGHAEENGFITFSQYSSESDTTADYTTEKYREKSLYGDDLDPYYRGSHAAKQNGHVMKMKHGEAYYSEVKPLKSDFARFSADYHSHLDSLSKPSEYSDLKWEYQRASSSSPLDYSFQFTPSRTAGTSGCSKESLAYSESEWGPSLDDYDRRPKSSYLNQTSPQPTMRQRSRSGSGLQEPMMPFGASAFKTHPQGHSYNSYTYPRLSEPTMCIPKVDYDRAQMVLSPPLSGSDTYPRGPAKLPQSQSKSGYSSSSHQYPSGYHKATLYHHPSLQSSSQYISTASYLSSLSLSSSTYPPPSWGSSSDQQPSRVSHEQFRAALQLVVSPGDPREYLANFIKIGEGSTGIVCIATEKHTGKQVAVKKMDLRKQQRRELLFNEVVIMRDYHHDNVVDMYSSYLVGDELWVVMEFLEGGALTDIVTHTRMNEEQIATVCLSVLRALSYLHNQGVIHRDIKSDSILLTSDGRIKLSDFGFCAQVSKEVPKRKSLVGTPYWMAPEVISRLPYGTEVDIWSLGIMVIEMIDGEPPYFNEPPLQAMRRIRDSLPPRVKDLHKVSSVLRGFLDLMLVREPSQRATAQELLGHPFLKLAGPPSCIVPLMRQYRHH
compound,measurement,setting,value
CN1C(=O)[C@@H](N2CCc3cn(Cc4ccccc4)nc3C2=O)COc2ccccc21 [TP-030-1],IC50,[1],1000 nM
same,inhibition,Rattus norvegicus [2],-8%
same,IC50,[3],1000 nM
same,IC50,[4],1000 nM
same,IC50,[5],1000 nM
same,IC50,[6],1000 nM
same,IC50,[7],1000 nM
same,IC50,[8],1000 nM
same,IC50,[9],1000 nM
same,IC50,[10],1000 nM
same,IC50,Aurora kinase A,1000 nM
same,IC50,[11],1000 nM
same,IC50,[12],1000 nM
same,IC50,[13],1000 nM
same,IC50,[14],1000 nM
same,IC50,[15],1000 nM
same,IC50,[16],1000 nM
same,IC50,[17],1000 nM
same,IC50,[18],1000 nM
same,inhibition,[19],-4%
same,IC50,[20],1000 nM
same,IC50,[21],1000 nM
same,IC50,[22],1000 nM
same,IC50,[23],1000 nM
same,IC50,[24],1000 nM
same,IC50,[25],1000 nM
same,IC50,[26],1000 nM
same,IC50,[27],1000 nM
same,IC50,[28],1000 nM
same,inhibition,[29],-4%
same,IC50,[30],1000 nM
same,IC50,[31],1000 nM
same,IC50,[32],1000 nM
same,IC50,[33],1000 nM
same,IC50,[34],1000 nM
same,IC50,[35],1000 nM
same,inhibition,Rattus norvegicus [36],24%
same,IC50,Myotonin-protein kinase,1000 nM
same,IC50,[37],1000 nM
same,inhibition,Rattus norvegicus [38],0%
same,IC50,Ephrin type-B receptor 1,1000 nM
same,IC50,[39],1000 nM
same,inhibition,[40],0%
same,IC50,[41],1000 nM
same,IC50,[42],1000 nM
same,IC50,[43],1000 nM
CN1C(=O)[C@@H](N2CCc3cn(CC4CCS(=O)(=O)CC4)nc3C2=O)COc2ccccc21 [TP-030n],IC50,[1],1000 nM
same,inhibition,Rattus norvegicus [2],-9%
same,IC50,[3],1000 nM
same,IC50,[4],1000 nM
same,IC50,[5],1000 nM
same,IC50,[6],1000 nM
same,IC50,[7],1000 nM
same,IC50,[8],1000 nM
same,IC50,[9],1000 nM
same,IC50,[10],1000 nM
same,IC50,Aurora kinase A,1000 nM
same,IC50,[11],1000 nM
same,IC50,[12],1000 nM
same,IC50,[13],1000 nM
same,IC50,[14],1000 nM
same,IC50,[15],1000 nM
same,IC50,[16],1000 nM
same,IC50,[17],1000 nM
same,IC50,[18],1000 nM
same,inhibition,[19],5%
same,IC50,[20],1000 nM
same,IC50,[21],1000 nM
same,IC50,[22],1000 nM
same,IC50,[23],1000 nM
same,IC50,[24],1000 nM
same,IC50,[25],1000 nM
same,IC50,[26],1000 nM
same,IC50,[27],1000 nM
same,IC50,[28],1000 nM
same,inhibition,[29],4%
same,IC50,[30],1000 nM
same,IC50,[31],1000 nM
same,IC50,[32],1000 nM
same,IC50,[33],1000 nM
same,IC50,[34],1000 nM
same,IC50,[35],1000 nM
same,inhibition,Rattus norvegicus [36],21%
same,IC50,Myotonin-protein kinase,1000 nM
same,IC50,[37],1000 nM
same,inhibition,Rattus norvegicus [38],1%
same,IC50,Ephrin type-B receptor 1,1000 nM
same,IC50,[39],1000 nM
same,inhibition,[40],-2%
same,IC50,[41],1000 nM
same,IC50,[42],1000 nM
same,IC50,[43],1000 nM
